Experimental data reported in US10182569B2, “Composition comprising allantoin and method of applying allantoin to a plant” (Kaneka Corporation, priority 2016, dated 2019).
Values joined by “and” are separate entries in the source; they are usually repeats but may differ in a detail not shown here. Equal values may be shown once. Read-outs that look alike come from different tables or passages of the source.

Legend:
[1] = system: Brassica chinensis komatsuna; assay: High temperature stress resistance of Brassica chinensis komatsuna via allantoin application (Experiment 3); format: in vivo, Brassica chinensis komatsuna (variety: Rakuten); settings: 1 mM allantoin 40 ml/pot 6 and 13 days after sowing, 45° C. for 1 hour
Procedure: A 5-cm polypot was mounted on a balance dish BD-2 (AS ONE Corporation), 70 ml of vermiculite (Protoleaf Inc.) was introduced thereinto, 80 ml of culture soil (TAKII & CO., LTD.) was further introduced thereinto, 3 seeds of Brassica chinensis komatsuna (variety: Rakuten, TAKII & CO., LTD.) were sowed at the center of the pot, and 20 ml of vermiculite was further introduced thereinto, so as to cover the soil. Thereafter, 50 ml of tap water was supplied to the balance dish two times. The polypot (together with the balance dish) was mounted on a bat and introduced into an incubator at 22° C. and 10,000 Lux for a light period of 12 hours and a dark period of 12 hours, so as to initiate cultivation. The day on which cultivation was initiated was designated as Day 0 after sowing.
Germination was observed 3 days after sowing. While leaving one plant in each pot, other plants were removed therefrom 6 days after sowing. […]
(§1) The “viability” indicates the proportion of the number of survived plants relative to the number of plants subjected to the heat shock treatment. The viability was calculated by regarding plants that would no longer grow (i.e., the plants with the youngest leaves suffering from physical damage, such as whitening, withering, or curling of leaves) as plants that are not survived.

Arabidopsis thaliana [2] = assay: High temperature stress resistance of Arabidopsis thaliana cultivated in allantoin-containing medium (Experiment 6); format: in vivo; settings: 10 μM, 100 μM or 1,000 μM allantoin in ½ MS solid medium; 45° C. 105 minutes; grown 1 week
Procedure: The wild-type (WT) line of Arabidopsis thaliana (L.) Heynh., accession Columbia-0 described in Experiment 1 was used.
The ½ MS solid medium described in Experiment 1 (Table 1) was used (10 μM, 100 μM, or 1,000 μM allantoin was further added to the allantoin-supplemented group, allantoin was not added to the allantoin-free group, a deep sterilized petri dish No. 903 VALMARK; Ina-Optika Corporation).
(5) In the petri dish, a circular accommodation part (a plane view) is divided into 2 semicircular compartments by a partition wall extended toward a diametrical direction. The allantoin-free ½ MS solid medium was accommodated in one of the compartments of the petri dish, the allantoin-supplemented ½ MS solid medium was accommodated in another compartment, and 15 seeds were sowed in each compartment (i.e., 30 seeds in total per petri dish) (FIG. 5A).
(8) The resultant was transferred to a culture chamber and cultured therein at 22° C. under long-day conditions (light application for 16 hours under fluorescent light: 0.07 mmol photons […] s^−1) for 7 days. […]
(10) Thereafter, the petri dish was cooled in an incubator at 23° C. for 10 to 15 minutes, and the plants were then allowed to grow again for 1 week under the conditions (8). […] The viability was evaluated on the basis of such phenomenon. […]

[3] = system: HSF3 (AGI code: AT5G16820); assay: HSF3 gene expression, quantitative PCR, cultivation in allantoin-containing medium (Experiment 5); format: in vivo, Arabidopsis thaliana; settings: 1 mM allantoin in ½ MS solid medium, 14 days, leaves and stems, reference gene ACT2
Procedure: (§2) Seeds of wild-type Arabidopsis thaliana line (Columbia-0) were sterilized in 2.5% (v/v) sodium hypochlorite, sowed in the ½ MS solid medium described in Experiment 1 (Table 1) (the medium was supplemented with 1 mM allantoin; allantoin was not added to the control group: a deep petri dish with a diameter of 90 mm and a height of 20 mm), and then allowed to grow under long-day conditions (in an incubator at 5,000 Lux, a light period of 16 hours and a dark period of 8 hours, 22° C.) for 14 days. Using a commercialized kit, RNA extraction from leaves and stems of Arabidopsis thaliana (NucleoSpin RNAII, MACHEREY-NAGEL), reverse transcription (ReverTra Ace qPCR RT Master Mix, TOYOBO), and quantitative PCR (KAPA SYBR FAST qPCR Master Mix, KAPABIOSYSTEMS) were carried out. As a reference gene, ACT2 (AGI code: AT3G18780) was used. As a result, the relative expression level of DREB2A (AGI code: AT5G05410; SEQ ID NO: 1) and that of HSF3 (AGI code: AT5G16820; SEQ ID NO: 2) were 2.2 times and […] greater than the expression level of the control group, respectively.

onion = assay: High temperature stress resistance of onion via allantoin application (Experiment 2); format: in vivo, onion (variety: Neoearth); settings: for viability 3 days after the heat shock treatment: 1 mM allantoin 40 ml/pot 6 days after sowing
Procedure: A 5-cm polypot was mounted on a balance dish BD-2 (AS ONE Corporation), 70 ml of vermiculite (Protoleaf Inc.) was introduced thereinto, 80 ml of culture soil (TAKII & CO., LTD.) was further introduced thereinto, 3 seeds of onion (variety: Neoearth; TAKII & CO., LTD.) were sowed at 3 positions, and 20 ml of vermiculite was further introduced thereinto, so as to cover the soil. Thereafter, 50 ml of tap water was supplied to the balance dish two times. The polypot (together with the balance dish) was mounted on a bat, and the resultant was then introduced into an incubator at 22° C. and 10,000 Lux for a light period of 12 hours and a dark period of 12 hours, so as to initiate cultivation. The day on which cultivation was initiated was designated as Day 0 after sowing. Germination was observed 5 days after sowing. While leaving 3 plants in each pot (i.e., a plant in each position), other plants were removed therefrom 6 days after sowing.
Tap water or an aqueous solution of 1 mM allantoin was applied to each test group (40 ml/pot) 6 days after sowing (hereafter, referred to as the “water treatment group” or the “allantoin treatment group,” respectively). Tap water was applied to all the pots (40 ml/pot) 11 days after sowing. The pots mounted on the bats were introduced into the incubator 13 days after sowing (at the 2-true-leaf stage in the case of onions), and the plants were exposed to high temperature stress at 45° C. for 1 hour, 1.5 hours, and 2 hours. Soil in the pots was sufficiently humidified before and after high temperature stress application. After the completion of the high temperature stress treatment, the temperature in the incubator was cooled to 22° C., and cultivation was continued. Water was supplied 2 days after the heat shock treatment (40 ml/pot). Thereafter, water was supplied in an amount of 40 ml per pot at intervals of 2 days.
as §1

[4] = system: wild-type Arabidopsis thaliana; settings: allantoin administered to wild-type Arabidopsis thaliana; cited from earlier work
[5] = system: DREB2A (AGI code: AT5G05410); assay: DREB2A gene expression, quantitative PCR, cultivation in allantoin-containing medium (Experiment 5); format: in vivo, Arabidopsis thaliana; settings: 1 mM allantoin in ½ MS solid medium, 14 days, leaves and stems, reference gene ACT2
Procedure: as §2

rice = rice seeds immersed in 300 mg/L allantoin solution for 24 hours; cited from earlier work
rice (Koshihikari) = assay: Leaf Area Index of rice in paddy field after allantoin application to seedlings (Experiment 9); format: in vivo; settings: for LAI (Leaf Area Index): 1 mM allantoin 3 L per nursery box on Day 26 after sowing, two plant bodies
Procedure: A 1 mM allantoin aqueous solution or water was applied in an amount of 3 L each to the seedlings of rice (Koshihikari) on Day 26 after sowing (the size of a nursery box: 280×580×28 (mm) (depth×width×height)). A total of the applied dose of allantoin per unit area, which was applied for a single application in Experiment 9, was 3.0 g/m^2 (1.05 g/m^2 relative to allantoin nitrogen) in the 1 mM allantoin group.
Twelve hours after the application, the seedlings were planted in a paddy field, and were then allowed to grow for 55 days and for 63 days. Thereafter, using a leaf area measurement apparatus LAI-2200 (MEIWAFOSIS CO., LTD.), Leaf Area Index (LAI) which indicates the leaf area under conditions in which the plant still grows in the field, was non-destructively measured. LAI was obtained from two plant bodies in each of the allantoin group and the water group (n=2).

Arabidopsis thaliana [6] = settings: application of allantoin to Arabidopsis thaliana; cited from earlier work
creeping bentgrass [7] = format: in vivo, creeping bentgrass (variety: 007); settings: 1 mM allantoin 40 ml/pot on Days 7, 10 and 13; measured Day 13 after sowing; mean of 20 grasses per pot
Procedure: (§3) A polypot with 5 cm each side was placed on a balance dish BD-2 (AS ONE Corporation), and 120 ml of joint- and bed-soil for turf grass (TACHIKAWA HEIWA NOUEN CO., LTD.) was then added into the pot. Thereafter, 140 mg of seeds of creeping bentgrass (variety: 007, Power Shop FUJI) was seeded on the soil, and 3 ml of the soil was further added onto the seeds. Thereafter, 10 ml of tap water was supplied to the balance dish. The polypot (together with the balance dish) was placed on a tray, and was then placed in an artificial climate chamber having a temperature of 20° C., a light intensity of 300 μmol/m^2/s, a light period of 16 hours, a dark period of 8 hours, and a humidity of 70%, and thereafter, cultivation was initiated. The day on which cultivation was initiated was defined as Day 0 after sowing. On Day 2 after sowing, 40 ml/pot tap water was applied to all pots. On Day 5 after sowing, germination was confirmed.
On Days 7, 10 and 13 after sowing, tap water (hereinafter referred to as a “water group”) or a 1 mM allantoin aqueous solution (hereinafter referred to as an “allantoin group”) was applied, in an amount of 40 ml/pot, to individual experiment groups. […]
On Day 13 after sowing, 20 turf grasses were selected from each pot, and the grass height and fresh weight of each grass were then measured. Based on the measured values, a mean value was calculated. […]

creeping bentgrass [8] = format: in vivo, creeping bentgrass (variety: 007); settings: measured Day 15
Procedure: as §3
On Days 6, 11 and 13 after sowing, tap water (hereinafter referred to as a “water group”) or a 0.5 or 1 mM allantoin aqueous solution (hereinafter referred to as an “allantoin group”) was applied, in an amount of 40 ml/pot, to individual experiment groups. On and after Day 13 after sowing, a difference was found in the growth of turf glasses among individual groups. On Day 15, 20 turf grasses were selected from each pot, and the grass height and fresh weight of each grass were then measured. Based on the measured values, a mean value was calculated.

[9] = 0.5 mM allantoin 40 ml/pot on Days 6, 11 and 13
[10] = 1 mM allantoin 40 ml/pot on Days 6, 11 and 13

Q: What does the source list for `NC(=O)NC1NC(=O)NC1=O` (racemic) [Allantoin]?
A: viability 7 days after the heat shock treatment [1]: 100%; resistance to high temperature stress (viability) (Arabidopsis thaliana [2]): has resistance to high temperature stress; relative expression level of HSF3 versus control group [3]: 0.7 times; viability 3 days after the heat shock treatment (onion; 45° C. for 1 hour): 66.7%; viability 3 days after the heat shock treatment (onion; 45° C. for 1.5 hours): 33.3%; viability 3 days after the heat shock treatment (onion; 45° C. for 2 hours): 11.1%; viability 8 days after heat shock treatment (onion; 1 mM allantoin, 45° C. for 1, 1.5 and 2 hours, compared with 3 days): same viability; production of abscisic acid [4]: promoted; relative expression level of DREB2A versus control group [5]: 2.2 times; height of the seedlings, number of roots and fresh weight of the seedlings versus water control (rice): increased; LAI (Leaf Area Index) (rice (Koshihikari); 55th day in paddy field): 1.94 m^2/m^2 and 2.04 m^2/m^2; LAI (Leaf Area Index) (rice (Koshihikari); 63rd day in paddy field): 2.71 m^2/m^2 and 2.82 m^2/m^2; LAI smaller than the LAI of the water group (rice (Koshihikari); 55th day): approximately 25%; LAI smaller than the LAI of the water group (rice (Koshihikari); 63rd day): approximately 10%; plant growth (Arabidopsis thaliana [6]): promoted; Fresh weight (creeping bentgrass [7]): 2.9 mg; Grass height (creeping bentgrass [7]): 5.6 cm; Fresh weight (creeping bentgrass [8]; [9]): 3 mg; Grass height (creeping bentgrass [8]; [9]): 5.8 cm; Fresh weight (creeping bentgrass [8]; [10]): 3.1 mg; Grass height (creeping bentgrass [8]; [10]): 5.9 cm
